Earlier results as cited in patent US11858967B2, “Compositions and methods for enhanced production of enduracidin in a genetically engineered strain of streptomyces fungicidicus” (Oregon State University, priority 2016, dated 2024).
Where two headings read alike, the source gives them in different places.

Experiments:
[1] = test system: Gram-positive organisms, including methicillin-resistant Staphylococcus aureus (MRSA) and vancomycin-resistant Enterococcus (VRE)
[2] = test system: S. aureus (100 strains, including 40% MRSA); conditions: 100 strains of S. aureus
[3] = mice, rabbits, dogs and monkeys
[4] = monkey, in vivo
[5] = rat, in vivo
MRSA = conditions: humans, i.m. 100 mg every 12 hours
[6] = in vivo

Enduracidin
type of antibacterial effect [1]: bactericidal
Minimum inhibitory concentrations (MICs) ([1]; as low as): ≥ 0.05 µg/mL
concentration at which no strain was able to survive exposure [2]: 1 µg/mL
acute LD50 ([3]; intraperitoneal): 750 to 910 mg/kg
acute LD50 ([3]; intravenous): 30 to 125 mg/kg
acute LD50 ([3]; subcutaneous, intramuscular (i.m.) or oral): 5000 to 10000 mg/kg
activity towards Clostridium spp. (Clostridium spp.): excellent activity
findings after long-term dosing [4]: localized inflammation at the injection site
findings after long-term dosing [5]: localized inflammation at the injection site
efficacy in chronic bone infections (MRSA): not chronic bone infections
efficacy in urinary tract and skin infections caused by MRSA (MRSA): highly effective
oral bioavailability [6]: lack of oral bioavailability
